Measured values as given in patent US9447136B2, “Semisynthetic derivatives of Nystatin A1” (BLIRT S.A., priority 2012, dated 2016).
≈ marks a conversion by molar mass, not a printed value.

What was measured:
[1] = format: physicochemical
From the text: As described herein, a compound of the invention may also be provided in the form of a complex, with a complexing agent.

Candida albicans 5674 = test: Antifungal activity towards resistant (MDR) strains; format: cell-based; conditions: C. albicans 5674 overexpressing CDR1 and CDR2
Procedure, shortened: (§1)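 Broth microdilution per CLSI M27-A2 in buffered RPMI 1640 with serial compound dilutions; growth read as A660. MIC taken from A660-versus-concentration curves as the concentration giving A660 at most 20% of untreated control.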

Candida albicans F2 = test: as above; format: cell-based; conditions: fluconazole sensitive, parent strain for F5
Procedure, shortened: as §1

Candida albicans STY19 = test: as above; format: cell-based; conditions: 5674 mutant derivative, deletion of CDR1
Procedure, shortened: as §1

Candida albicans STY31 = test: as above; format: cell-based; conditions: 5674 mutant derivative, deletion of CDR1 and CDR2
Procedure, shortened: as §1

Candida albicans B3 = test: as above; format: cell-based; conditions: fluconazole sensitive, parent strain for B4
Procedure, shortened: as §1

Candida albicans STY7 = test: as above; format: cell-based; conditions: 5674 mutant derivative, deletion of CDR2
Procedure, shortened: as §1

Candida albicans Gu5 = test: as above; format: cell-based; conditions: fluconazole-resistant due to the overexpression of CDR1 and CDR2
Procedure, shortened: as §1

Candida albicans F5 = test: as above; format: cell-based; conditions: fluconazole-resistant due to the overexpression of CaMDR1 and ERG11
Procedure, shortened: as §1

Candida albicans B4 = test: as above; format: cell-based; conditions: fluconazole-resistant due to the overexpression of CaMDR1
Procedure, shortened: as §1

Candida albicans Gu4 = test: as above; format: cell-based; conditions: fluconazole sensitive, parent strain for Gu5
Procedure, shortened: as §1

LLC-PK1 = test: Cytotoxic activity against mammalian cells in tissue culture (MTT); format: cell-based, pig
Procedure, shortened: (§2)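 Cells at 1.2×10^4/well were exposed to serial 2× DMSO dilutions for 120 h at 37 °C: CCRF-CEM in RPMI 1640 + 10% FBS, HepG2 in MEM + 10% FBS, LLC-PK1 in Medium 199 + 3% FBS. MTT was added for 4 h and A540 read. IC50 is the concentration halving A540 versus DMSO control.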

Human erythrocytes = test: Hemotoxicity (hemolytic activity); conditions: human erythrocytes
Procedure, shortened: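 Human erythrocytes in saline (2×10^7/ml) were incubated with serially diluted compound at 37 °C for 30 min, then centrifuged. Released hemoglobin was read as A540 against 0.1% Triton X-100 as full hemolysis. EH50 is the interpolated concentration giving 50% of the control A540.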

HepG2 = test: Cytotoxic activity against mammalian cells in tissue culture (MTT); format: cell-based, human
Procedure, shortened: as §2

CCRF-CEM = test: as above; format: cell-based, human
Procedure, shortened: as §2

[2] = system: Candida pseudotropicalis KKP 324; test: Antifungal activity in vitro, serial dilution in RPMI 1640; format: cell-based; conditions: Table 2B
Procedure, shortened: (§3)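 Broth serial dilution per M27-A2 in buffered RPMI 1640, pH 7.0. Growth read as optical density at 531 nm; IC50 interpolated as concentration giving 50% of control A531, MIC as lowest concentration giving at most 20% of control A531.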

Candida arborea KKP 319 = test: as above; format: cell-based; conditions: Table 2B
Procedure, shortened: as §3

[3] = system: Trichoderma viride LOCK E159; test: as above; format: cell-based; conditions: Table 2B
Procedure, shortened: as §3

[4] = system: Candida stellatoidea CBS 1905; test: as above; format: cell-based; conditions: Table 2B
Procedure, shortened: as §3

[5] = system: Candida tropicalis KKP 334; test: as above; format: cell-based; conditions: Table 2A; RPMI 1640, pH 7.0
Procedure, shortened: as §3

[6] = system: Candida albicans ATCC 10231; test: as above; format: cell-based
Procedure, shortened: as §3

[7] = system: Candida quilliermondii DSM 11947; test: as above; format: cell-based; conditions: Table 2B
Procedure, shortened: as §3

[8] = system: Candida lipolytica KKP 322; test: as above; format: cell-based; conditions: Table 2B
Procedure, shortened: as §3

[9] = system: Saccharomyces cerevisiae ATCC 9763; test: as above; format: cell-based
Procedure, shortened: as §3

Candida krusei DSM 6128 = test: as above; format: cell-based; conditions: Table 2A; RPMI 1640, pH 7.0
Procedure, shortened: as §3

[10] = system: Candida lusitaniae DSM 70102; test: as above; format: cell-based; conditions: Table 2A; RPMI 1640, pH 7.0
Procedure, shortened: as §3

[11] = system: Candida parapsilosis DSM 5784; test: as above; format: cell-based; conditions: Table 2B
Procedure, shortened: as §3

[12] = system: Aspergillus niger LOCK E201; test: as above; format: cell-based; conditions: Table 2B
Procedure, shortened: as §3

[13] = system: Candida dubliniensis CBS 7987; test: as above; format: cell-based; conditions: Table 2B
Procedure, shortened: as §3

[14] = system: Candida glabrata DSM 11226; test: as above; format: cell-based; conditions: Table 2A; RPMI 1640, pH 7.0
Procedure, shortened: as §3

[15] = Table 2A, RPMI 1640, pH 7.0, A531 at most 20% of control

Structure (SMILES): CCCN(CC(=O)C(O)C(O)C(O)CO)C1C(O)C(C)OC(OC2C=CC=CC=CC=CCCC=CC=CC(C)C(O)C(C)C(C)OC(=O)CC(O)CC(O)CCC(O)C(O)CC(O)CC3(O)CC(O)C(C(=O)O)C(C2)O3)C1O.CNCC(O)C(O)C(O)C(O)CO [Compound N59, N-methyl-D-glucamine salt of N-fructosyl-N-n-propylnystatin A1]
- water solubility of the salt [1]: water soluble

Structure (SMILES): C[C@@H]1[C@H](O)[C@@H](C)/C=C/C=C/CC/C=C/C=C/C=C/C=C/C(O[C@H]2O[C@H](C)[C@@H](O)[C@H](N)[C@@H]2O)CC2O[C@](O)(CC(O)C(O)CCC(O)CC(O)CC(O)CC(=O)O[C@H]1C)CC(O)C2C(=O)O (some centres unmarked) [Nystatin, Nystatin A1]
- MIC Candida albicans 5674 (Candida albicans 5674): 1 µg/mL (≈ 1.08 µM)
- MIC Candida albicans F2 (Candida albicans F2): 1 µg/mL (≈ 1.08 µM)
- MIC Candida albicans STY19 (Candida albicans STY19): 1 µg/mL (≈ 1.08 µM)
- MIC Candida albicans STY31 (Candida albicans STY31): 1 µg/mL (≈ 1.08 µM)
- MIC Candida albicans B3 (Candida albicans B3): 0.5 µg/mL (≈ 0.54 µM)
- MIC Candida albicans STY7 (Candida albicans STY7): 1 µg/mL (≈ 1.08 µM)
- MIC Candida albicans Gu5 (Candida albicans Gu5): 1 µg/mL (≈ 1.08 µM)
- MIC Candida albicans F5 (Candida albicans F5): 1 µg/mL (≈ 1.08 µM)
- MIC Candida albicans B4 (Candida albicans B4): 1 µg/mL (≈ 1.08 µM)
- MIC Candida albicans Gu4 (Candida albicans Gu4): 0.5 µg/mL (≈ 0.54 µM)
- Cytotoxicity IC50 LLC-PK1 (LLC-PK1): >100 µg/mL
- % of hemolysis at the concentration 60 μg ml^−1 (Human erythrocytes; 60 μg ml^−1): 100%
- % of hemolysis at the concentration 300 μg ml^−1 (Human erythrocytes; 300 μg ml^−1): 100%
- EH10 (Human erythrocytes; concentration causing 10% of hemolysis): 22.13 µg/mL
- Cytotoxicity IC50 HepG2 (HepG2): 24.9 ± 2.332 µg/mL
- Cytotoxicity IC50 CCRF-CEM (CCRF-CEM): >100 µg/mL
- MIC Candida pseudotropicalis KKP 324 [2]: 1 µg/mL (≈ 1.08 µM)
- MIC Candida arborea KKP 319 (Candida arborea KKP 319): 1 µg/mL (≈ 1.08 µM)
- MIC Trichoderma viride LOCK E159 [3]: 1 µg/mL (≈ 1.08 µM)
- MIC Candida stellatoidea CBS 1905 [4]: 1 µg/mL (≈ 1.08 µM)
- Antifungal activity Candida tropicalis KKP 334 MIC [5]: 0.5 µg/mL
- Antifungal activity Candida albicans ATCC 10231 IC50 ([6]; Table 2A, RPMI 1640, pH 7.0, A531 50% of control): 0.23 µg/mL
- Antifungal activity Candida albicans ATCC 10231 MIC [6, 15]: 0.5 µg/mL
- MIC Candida albicans ATCC 10231 ([6]; Table 2B): 0.5 µg/mL (≈ 0.54 µM)
- MIC Candida quilliermondii DSM 11947 [7]: 0.5 µg/mL (≈ 0.54 µM)
- MIC Candida lipolytica KKP 322 [8]: 0.5 µg/mL (≈ 0.54 µM)
- Antifungal activity Saccharomyces cerevisiae ATCC 9763 MIC [9, 15]: 0.5 µg/mL
- MIC Saccharomyces cerevisiae ATCC 9763 ([9]; Table 2B): 0.5 µg/mL (≈ 0.54 µM)
- Antifungal activity Candida krusei DSM 6128 MIC (Candida krusei DSM 6128): 1 µg/mL
- Antifungal activity Candida lusitaniae DSM 70102 MIC [10]: 0.25 µg/mL
- MIC Candida parapsilosis DSM 5784 [11]: 1 µg/mL (≈ 1.08 µM)
- MIC Aspergillus niger LOCK E201 [12]: 1 µg/mL (≈ 1.08 µM)
- MIC Candida dubliniensis CBS 7987 [13]: 1 µg/mL (≈ 1.08 µM)
- Antifungal activity Candida glabrata DSM 11226 MIC [14]: 1 µg/mL
